Reference: PMC3610872, “Full and Partial Agonists of Thromboxane Prostanoid Receptor Unveil Fine Tuning of Receptor Superactive Conformation and G Protein Activation” (PLoS ONE, 2013)
Where a chain is given by its changes, count along the chain named.

Legend:
[1] = target: T1, E129V mutant human TP receptor (Homo sapiens, UniProt P21731, E129V); test: Total inositol phosphate (IP) accumulation, E129V mutant; assay type: cell-based; settings: HEK293 cells; for Pharmacodynamic behaviour in total IP assay / EC50 / Emax, total IP: E129V; for Pharmacodynamic behaviour in total IP assay: SQ29,548 in absence or presence of Gαq overexpression; for Activity ratio (EC50 WT over EC50 E129V), total IP: WT vs E129V
T1 construct: expressed in transfected cells; host or cells: HEK293
T1 sequence (P21731 1-343 E129V): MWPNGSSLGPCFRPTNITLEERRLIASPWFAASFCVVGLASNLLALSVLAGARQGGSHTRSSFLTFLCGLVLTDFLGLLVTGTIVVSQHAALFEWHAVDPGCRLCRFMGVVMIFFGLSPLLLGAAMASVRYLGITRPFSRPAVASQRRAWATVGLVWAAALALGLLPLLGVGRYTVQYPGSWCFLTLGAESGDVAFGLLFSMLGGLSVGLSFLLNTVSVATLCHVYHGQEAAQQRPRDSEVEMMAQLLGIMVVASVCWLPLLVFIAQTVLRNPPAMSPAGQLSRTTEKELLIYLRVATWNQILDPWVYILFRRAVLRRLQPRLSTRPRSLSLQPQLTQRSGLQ
Experimental: (§1) Receptor expression and functional activity were monitored 48 hours after transfection. […] Heterologous competition studies involved concentrations of the indicated unlabeled ligands extending from 0.1 nM to 30 µM. After 30 min incubation at 25 °C, the reaction was stopped by aspiration of the medium, cells were washed with ice-cold PBS containing 0.2% (w/v) BSA and lysed in 0.5 N NaOH. Radioactivity was measured by liquid scintillation counting. Binding data were analyzed as described in Data and Statistical Analysis. Quantification of the total labeled inositol phosphates (IP) accumulation was performed using a conventional gravity flow column chromatography, as described previously, [19]. Briefly, the day before the assay, cells were labeled with 0,5 µCi of [myo-2-^3H]inositol (17 Ci/mmol) for 18–20 hours in serum-free, inositol-free DMEM containing 20 mM HEPES buffer, pH 7.4, and 0.5% (w/v) Albumax I. The day of the assay, media was replaced with serum-free, inositol-free DMEM containing 25 mM LiCl and cells stimulated for 30 min with the indicated agonists. After removal of the medium, cells were lysed with 10 mM formic acid and lysates were applied onto an anion exchange AG 1X-8 column, formate form, 200–400 mesh. The total IP fraction was then eluted with 2 M ammonium formate/formic acid buffer at pH 5 and radioactivity determined by liquid scintillation counting. Rescue experiments were performed essentially as above, except for a 18 hours incubation step with 1 µΜof […] followed by its removal by washing three times with ice-cold PBS containing 1 mM MgCl2 and 0.1 mM CaCl2 before starting the experiment.
(§2) All average results are presented as mean±S.E. When indicated, ANOVA followed by post-hoc test for multiple comparisons was performed. Data from radioligand binding were evaluated by a nonlinear, least-squares curve-fitting procedure using GraphPad Prism version 4, implemented with the n-ligand m-binding site model, as described in the LIGAND computer program. Concentration-response curves were evaluated using Prism 4, which use the four parameters logistic model as described in the ALLFIT program. Parameter errors are all expressed in percentage coefficient of variation (%CV) and calculated by simultaneous analysis of at least two different independent experiments performed in duplicate or triplicate. Parameter comparison has been performed on the base of the F test for extra sum of square principle. All curves shown are computer generated.

[2] = target: T2, double mutant E129V/E240V of human TP receptor (Homo sapiens, UniProt P21731, E129V/E240V); test: Total inositol phosphate (IP) accumulation, E129V/E240V double mutant, rescue with SQ29,548; assay type: cell-based; settings: cells exposed to 1 µM for 18 hours, removed by washing, then 1 µM U46619 for 30 min
T2 construct: expressed in transfected cells; host or cells: HEK293
T2 sequence (P21731 1-343 E129V/E240V): T1 sequence (P21731 1-343 E129V) with E240V
Experimental: Receptor expression and functional activity were monitored 48 hours after transfection. […] Heterologous competition studies involved concentrations of the indicated unlabeled ligands extending from 0.1 nM to 30 µM. After 30 min incubation at 25 °C, the reaction was stopped by aspiration of the medium, cells were washed with ice-cold PBS containing 0.2% (w/v) BSA and lysed in 0.5 N NaOH. Radioactivity was measured by liquid scintillation counting. Binding data were analyzed as described in Data and Statistical Analysis. Quantification of the total labeled inositol phosphates (IP) accumulation was performed using a conventional gravity flow column chromatography, as described previously, [19]. […] The total IP fraction was then eluted with 2 M ammonium formate/formic acid buffer at pH 5 and radioactivity determined by liquid scintillation counting. […]
All average results are presented as mean±S.E. When indicated, ANOVA followed by post-hoc test for multiple comparisons was performed. Data from radioligand binding were evaluated by a nonlinear, least-squares curve-fitting procedure using GraphPad Prism version 4, implemented with the n-ligand m-binding site model, as described in the LIGAND computer program. Concentration-response curves were evaluated using Prism 4, which use the four parameters logistic model as described in the ALLFIT program. […]

WT human TP receptor [3] = target: T3, WT human TP receptor (Homo sapiens, UniProt P21731); test: Total inositol phosphate (IP) accumulation, WT receptor; assay type: cell-based; settings: HEK293 cells; for Pharmacodynamic behaviour in total IP assay: SQ29,548 in absence or presence of Gαq overexpression
T3 construct: expressed in transfected cells; host or cells: HEK293
T3 sequence (P21731 1-343): T1 sequence (P21731 1-343 E129V) with V129E
Experimental: as §1, §2

[4] = target: T1, E129V mutant human TP receptor; test: [3H]SQ29,548 radioligand binding (mixed-type and heterologous competition), E129V mutant; settings: HEK293 cells; for Ki: E129V, competition vs 1 nM [3H]SQ29,548, 25°C 30 min, value ±%CV; for Affinity ratio (Ki WT over Ki E129V): WT vs E129V
Experimental: as §1, §2
(§3) Thus, transfection conditions were adjusted to secure equivalent levels of receptor expression for WT and mutants as previously described, [17], [19]. […] All the experiments were conducted within this range of receptor expression, if not specified differently.

WT human TP receptor [5] = target: T3, WT human TP receptor; test: [3H]SQ29,548 radioligand binding (mixed-type and heterologous competition), WT receptor; settings: HEK293 cells, competition vs 1 nM [3H]SQ29,548, 25°C 30 min, value ±%CV
Experimental: as §1, §2, §3

[6] = target: T1, E129V mutant human TP receptor; test: BRET2 measurement of Gq protein activation, E129V mutant; assay type: cell-based; settings: HEK293 cells; for EC50: E129V, Gαq-Rluc8/GFP10-Gγ2/Gβ1, 2 min ligand, value ±%CV; for Activity ratio (EC50 WT over EC50 E129V), BRET: WT vs E129V
Experimental: as §2

WT human TP receptor [7] = target: T3, WT human TP receptor; test: BRET2 measurement of Gq protein activation, WT receptor; assay type: cell-based; settings: HEK293 cells, value ±%CV; for EC50: Gαq-Rluc8/GFP10-Gγ2/Gβ1, 2 min ligand
Excerpt: HEK 293 cells were co-transfected with vectors expressing the GFP^10-Gγ2, Gβ1, Gαq-Rluc8 and WT or E129V mutant of TP receptor to investigate direct G protein activation with an intramolecular bioluminescent resonance energy transfer (BRET^2) strategy. To avoid possible variations in the BRET signaling resulting from fluctuation in the relative expression levels of the energy donor and acceptor, we designed transfection conditions to maintain constant GFP^10 and Rluc8 expression and their ratios in each experimental set. Total fluorescence and luminescence were directly determined in an aliquot of the transfected cells using an Infinite F500 microplate reader (Tecan, Milan, Italy) as previously described. […] 48 hours after transfection, cells were washed once with PBS, detached, and resuspended in PBS+0.1% (w/v) glucose at room temperature. Cells were then distributed (80 µg of proteins per well) into a 96-well microplate (Wallac, Perkin Elmer, Monza, Italy) and incubated in the presence or absence of increasing concentrations of ligands for 2 min before the addition of the luciferase substrate Coelenterazine 400a (5 µM; Biotium, Hayward, CA). BRET signal between Rluc8 and GFP^10 was measured immediately after the addition of the Rluc substrate in the microplate reader. The BRET signal was calculated as the ratio of the light emitted by GFP^10 (510–540 nm) over the light emitted by Rluc8 (370–450 nm). The changes in BRET induced by the ligands were expressed as Òagonist-induced BRETÓ, obtained by subtracting the BRET signal detected in the presence of PBS by the BRET signal detected in the presence of the specific ligand.
as §2
This recorded real time conformational changes between the α and the βγ subunits within the Gq protein, where a decrease of the BRET signal provoked by agonist-induced receptor activation is indicative of a conformational reorganization leading the Gα-Gβγ interface to open, reflects the initial event of Gq protein activation, [23] (Figure 6A).

[8] = Gαq overexpression (5x), 30 min
[9] = 30 min stimulation, no Gαq overexpression, value ±%CV

| Pharmacodynamic behaviour in total IP assay [1] | Pharmacodynamic behaviour in total IP assay (WT human TP receptor [3]) | EC50 [1, 8] [nM] | Emax, total IP [1, 8] [dpm/well] | Emax, total IP ([1]; no Gαq overexpression, 30 min) [dpm/well] | EC50 (WT human TP receptor [3]; [8]) [nM] | Emax, total IP (WT human TP receptor [3]; [8]) [dpm/well] | SMILES | Functional rescue of double mutant receptor activity [2] | Ki [4] [nM] | Ki (WT human TP receptor [5]) [µM] | Emax, total IP (WT human TP receptor [3]; [9]) [dpm/well] | EC50 [6] [nM] | Activity ratio (EC50 WT over EC50 E129V), BRET [6] | Affinity ratio (Ki WT over Ki E129V) [4] | EC50 ([1]; 30 min stimulation, value ±%CV) [nM] | Emax, total IP ([1]; 30 min stimulation, value ±%CV) [dpm/wel] | Activity ratio (EC50 WT over EC50 E129V), total IP [1] | EC50 (WT human TP receptor [7]) [nM] | Emax, agonist-induced BRET (WT human TP receptor [7]) | EC50 (WT human TP receptor [3]; 30 min stimulation, value ±%CV) [nM] |
| --- | --- | --- | --- | --- | --- | --- | --- | --- | --- | --- | --- | --- | --- | --- | --- | --- | --- | --- | --- | --- |
| pure antagonist | pure antagonist |  |  |  |  |  | O=C(O)CCC/C=C\C[C@@H]1[C@H](CNNC(=O)Nc2ccccc2)[C@H]2CC[C@@H]1O2 [SQ29,548, [1S-[1α,2α(Z),3α,4α]]-7-[3-[[2-[(phenylamino)carbonyl]-hydrazino]methyl]-7-oxabicyclo[2.2.1]hept-2-yl]-5-heptenoic acid] | able to rescue double mutant receptor functional activity, albeit not completely |  |  |  |  |  |  |  |  |  |  |  |  |
| much stronger agonist | very weak partial agonist | 747 | 26642 | 19423 | 1450 | 19670 | CCCCC[C@H](O)/C=C/C1CC2CC(C1C/C=C\CCCC(=O)O)C2(C)C (stereo partly drawn) [PTA2, 9α,11α-(dimethyl)methylene-15S-hydroxy-11α-deoxy-11α-methylene-thromba-5Z,13E-dien-1-oic acid] |  | 4840 | 12.1 | 5856 |  |  |  |  |  |  |  |  |  |
|  |  |  |  |  |  |  | CCCCC[C@H](O)/C=C/[C@H]1[C@H](O)CC(=O)[C@H]1C/C=C\CCCC(=O)O [8-isoPGE2, 8-iso Prostaglandin E2] |  | 547.6 ± 2 | 2.916 ± 0.015 | 5087±21 | 485 ± 46 | 4.1 | 5.3 | 95.9 ± 60 | 12201±5 | 12.0 | 1980 ± 72 | −0.02±42 | 1160 ± 72 |
|  |  |  |  |  |  |  | O=C(O)CCCC=CCC1C2CCC(O2)C1C=CC(O)COc1ccc(I)cc1 (stereo not drawn) [I-BOP, [1S-[1α,2α(Z),3β(1E,3S*),4α]]-7-[3-[3-hydroxy-4-(4-iodophenoxy)-1-butenyl]-7-oxabicyclo[2.2.1]hept-2-yl]-5-heptenoic acid] |  | 3.9 | 0.0243 ± 0.018 | 13099±14 | 3.96 |  |  | 2.99 | 17156±8 |  | 13 ± 27 | −0.07±5 | 25.1 ± 65 |
|  |  |  |  |  |  |  | CCCCC[C@H](O)/C=C/[C@@H]1[C@H](C/C=C\CCCC(=O)O)[C@@H](O)C[C@H]1O [8-isoPGF2α, 8-iso Prostaglandin F2α] |  | 2908 ± 11 | 12.93 ± 0.019 | 6744±42 | 404 ± 31 | 9.7 | 4.4 | 493 ± 53 | 15287±7 | 8.1 | 3940 ± 48 | −0.05±9 | 4000 ± 68 |
